Assay results from US4571393A, “3-Phenoxy-1-azetidinecarboxamides” (A. H. Robins Company, Incorporated, priority 1984, dated 1986).

How the values were obtained:
[1] = plasma half-life of elimination, two-way crossover oral/intravenous study in dogs; assay type: in vivo, mongrel dogs; details: 10 mg/kg, average of oral and intravenous testing, dog plasma, HPLC; read-out: mean apparent terminal half-life of elimination (converted)
Experimental: Tests were conducted in order to compare the apparent half-life of elimination in the animal bloodstream of compounds of the present invention with that of the parent prior art compounds of which they are the metabolites as follows:
A two-way crossover study was conducted on male and female adult mongrel dogs. Each dog, after overnight fasting, received a single oral or intravenous dose of 10 mg/kg of test drug in 75% PEG in water and in such concentration that each dog received 1 ml of solution/kg of body weight. Oral doses were administered by using a glass syringe attached to a Levin® tube (size 18 French) which served as the stomach tube. […] Plasma levels of the test drug in the samples were determined by the HPLC method described by Osman, M. A.; Pinchbeck, F. M.; Cheng, L. K.; and Wright, G. J. described in the Journal of Chromatography, 336 (1981). […] The test drug being measured and the internal standard were then extracted from the plasma into a mixture of hexane, methylene chloride and butanol. […] The final solution was chromatographed on a Waters® column C18 reverse-phase system, the samples being analyzed in sequential order starting with the 0-hr sample (control) and proceeding to the 24 hr sample for the same animal. Duplicate assays were carried out for each sample and the mean value was recorded. […]

[2] = anticonvulsant activity against Metrazole (pentylenetetrazol) s.c. in mice, method of Swinyard; assay type: in vivo; details: for Number Protected / Number Tested: 1/2 hr before 80 mg/kg s.c. Metrazole; for ED50: Mus musculus, ip, 80 mg/kg s.c. Metrazole, probit analysis, read-out: ED50 and (Confidence Limits)
Excerpt: The procedure for testing the compounds for their anticonvulsant activity and comparison with prior art compounds is based on evaluation techniques published by Swinyard, E. A. in EPILEPSIA 10: 107-19 (1969) and in J. PHARMAC. EXPTL. THERAP. 106: 319-30 (1952) as explained in greater detail below.
A comparison was made of anti-convulsant activity of the compound of Example 1 and the prior art methyl analog (U.S. Pat. No. 4,226,861, Example 4) using metrazole as the convulsant by the method of Swinyard (See above citation).
Ninety-six adult female mice weighing 24-32 g were randomly assigned to dosage groups according to the method of Steel, R. G. D. and Torrie, J. H. (1960) in "Principles and Procedures of Statistics," McGraw-Hill Book Company, Inc., pp 99-100, pp 428-31. Each mouse was identified with a color code on its tail. The test compounds were administered as suspensions in 10 ml/kg mouse body weight of 0.5% aqueous methyl cellulose within 15 minutes of preparation of the suspension. Metrazole (pentylenetetrazol) was prepared as a solution in physiological saline. The mice were not fasted prior to the test. Eight mice were tested at each dosage level.
Each mouse received one dose of the test drug in the 0.5% aqueous methylcellulose or the control article (0.5% aqueous methylcellulose alone) intraperitoneally. Metrazole (80 mg/kg S.C.) was then given in a loose fold of skin on the back of the neck; i.e., 1/2 hr after the test compound or control article was given. Injections were given with a 1-ml glass tuberculin syringe with appropriate size hypodermic needle (27 gauge for solutions; 23 gauge for suspensions). All injections were given in a volume of 10 ml/kg mouse body weight. […] Anticonvulsant data were tabulated as the percent protection, i.e., [formula] The ED50 and (95% confidence limits) and potency ratio were ascertained by the computer-based probit analysis ascribed to Finney, D. J. (1964) Statistical Method in Biological Assay., 2nd Ed., New York. Hefner Publishing Co. Results are in Table A. Statistical analysis of the data indicated no significant difference in anti-convulsant potency between the two compounds.
(a) All mice were first injected with 10 ml/kg of 0.5% aqueous
methylcellulose intraperitoneally in which test compound was suspended if
(b) 80 mg/kg Metrazole in 10 ml saline of mouse body weight was
administered to all mice subcutaneously in a loose fold of skin on the
back of the neck onehalf hr. after administration of test compound.

SMILES | half-life [1] | Number Protected / Number Tested ([2]; 45 mg/kg i.p.) | Number Protected / Number Tested ([2]; 67 mg/kg i.p.) | Number Protected / Number Tested ([2]; 100 mg/kg i.p.) | Number Protected / Number Tested ([2]; 150 mg/kg i.p.) | Number Protected / Number Tested ([2]; 225 mg/kg i.p.) | ED50 [2] | Potency and 95% Confidence Limits ([2]; potency ratio, prior art compound 1.00, i.p.)
NC(=O)N1CC(Oc2cccc(C(F)(F)F)c2)C1 [Example 1, 3-[3-(Trifluoromethyl)phenoxy]-1-azetidinecarboxamide] | 2.4 ± 0.4 h | 1/8 | 2/8 | 4/8 | 5/8 | 8/8 | 99.2 mg/kg | 0.92
CNC(=O)N1CC(Oc2cccc(C(F)(F)F)c2)C1 [Example 4 of U.S. Pat. No. 4,226,861, N-methyl-3-(3-trifluoromethyl) phenoxy-1-azetidinecarboxamide, reference compound] | 1.3 ± 0.4 h | 1/8 | 2/8 | 3/8 | 8/8 | – | 90.9 mg/kg | –
